Among the data in patent US8815893B2, “Hetarylaminonaphthyridines” (Merck Patent GmbH, priority 2010, dated 2014) are IC50 values, retold here.

Some results are limits rather than exact numbers.

The first experiment concerns the target T1, GST-ALK5 (Homo sapiens, UniProt P36897).
T1 sequence (P36897 34-503): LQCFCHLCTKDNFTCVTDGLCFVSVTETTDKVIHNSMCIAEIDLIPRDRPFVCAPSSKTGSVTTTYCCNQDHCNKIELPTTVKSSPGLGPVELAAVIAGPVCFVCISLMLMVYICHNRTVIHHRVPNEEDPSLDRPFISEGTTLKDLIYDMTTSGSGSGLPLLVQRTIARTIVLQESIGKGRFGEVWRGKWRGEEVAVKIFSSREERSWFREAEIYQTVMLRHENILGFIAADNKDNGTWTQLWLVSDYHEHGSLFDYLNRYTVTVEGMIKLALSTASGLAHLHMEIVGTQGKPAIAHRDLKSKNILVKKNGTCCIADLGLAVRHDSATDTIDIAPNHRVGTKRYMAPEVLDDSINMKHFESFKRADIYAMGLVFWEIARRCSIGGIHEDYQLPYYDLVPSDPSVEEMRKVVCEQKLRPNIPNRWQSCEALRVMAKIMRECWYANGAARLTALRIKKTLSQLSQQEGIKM
Briefly: In-vitro (enzyme) kinase assay, 384-well flashplate (example 14). It is filed as biochemical. The settings on record: GST-ALK5, GST-SMAD2 substrate, 33P-ATP flashplate, 30° C. 45 min; IC50 classes; read-out: TβR activity (example 14). As for the experimental part:
In-Vitro (Enzyme) Assay for Determination of the Efficacy of Inhibitors of the Inhibition of TGF-Beta-Mediated Effects
The kinase assay was carried out as 384-well flashplate assay. 31.2 nM of GST-ALK5, 439 nM of GST-SMAD2 and 3 mM of ATP (with 0.3 μCi of ^33P-ATP/well) were incubated in a total volume of 35 μl (20 mM of HEPES, 10 mM of MgCl2, 5 mM of MnCl2, 1 mM of DTT, 0.1% of BSA, pH 7.4) without or with test substance (5-10 concentrations) at 30° C. for 45 min. The reaction was stopped using 25 μl of 200 mM EDTA solution, filtered with suction at room temperature after 30 min, and the wells were washed with 3 times 100 μl of 0.9% NaCl solution. Radioactivity was measured in the TopCount. The IC50 values were calculated using RS1. Above and below, all temperatures were indicated in ° C.
Regarding `CN1CCN(c2nccc(Nc3cc(-c4cc(Cl)ccc4F)nc4ncccc34)n2)CC1` [compound 93], the IC50 is greater than 10 µM.
Regarding `Fc1ccc(Cl)cc1-c1cc(-n2cc(Br)c3cnccc32)c2cccnc2n1` [compound 144], the IC50 was less than 0.1 µM.
`O=C(NCCN1CCCC1)c1cnccc1Nc1cc(-c2cc(Cl)ccc2F)nc2ncccc12` [compound 133]: the IC50 is less than 0.1 µM.
As to `CCOc1ccc(Cl)cc1-c1cc(Nc2ccnc(NC(C)=O)c2)c2cccnc2n1` [compound 79], the IC50 lay in the range of 0.1 to 1 µM.
Still for that read-out and setting: to `CC(C)(C)OC(=O)NCCCC(=O)Nc1cc(Nc2cc(-c3cc(Cl)ccc3F)nc3ncccc23)ncn1` [compound 131] belongs less than 0.1 µM.
`CN(C)CCNC(=O)c1cnccc1Nc1cc(-c2cc(Cl)ccc2F)nc2ncccc12` [compound 72]: the IC50 is less than 0.1 µM.
For `CC(C)(N)C(=O)Nc1cc(Nc2cc(-c3cc(Cl)ccc3F)nc3ncccc23)ncn1` [compound 136], the IC50 lay within 0.1 to 1 µM.
Take `Cc1ccc(-c2cc(Nc3ccncc3)c3cccnc3n2)o1` [compound 123]: the IC50 was in the range of 0.1 to 1 µM.
Turning to `NCC(=O)Nc1cc(Nc2cc(-c3cc(Cl)ccc3F)nc3ncccc23)ncn1` [compound 110], the IC50 is less than 0.1 µM.
For the compound `CC(=O)Nc1cc(Nc2cc(-c3ccccc3F)nc3ncccc23)ncn1` [compound 88], the IC50 was less than 0.1 µM.
As to `Fc1ccc(Cl)cc1-c1cc(Cc2ccncc2)c2cccnc2n1` [compound 75], the IC50 lay within 1 to 10 µM.
For `CNc1nccc(Nc2cc(-c3cccc(C)n3)nc3ncccc23)n1` [compound 90], the IC50 is less than 0.1 µM.
Consider `Cc1cc(-c2cc(Nc3cc(N(C)C)ncn3)c3cccnc3n2)c(C)o1` [compound 145], for which the IC50 was greater than 10 µM.
Same read-out and setting: to `CN(C)CCNC(=O)c1cc(Nc2cc(-c3cc(F)ccc3F)nc3ncccc23)ccn1` [compound 119] belongs 1 to 10 µM.
For the compound `CCOC(=O)c1cc(Nc2cc(-c3cc(F)ccc3F)nc3ncccc23)ccn1` [compound 128], the IC50 is greater than 10 µM.
Same read-out and setting: for `Fc1ccc(Cl)cc1-c1cc(-n2ncc3cnccc32)c2cccnc2n1` [compound 73] the value was less than 0.1 µM; for `Cc1cccc(-c2cc(Nc3cc(F)nc(N4CCOCC4)n3)c3cccnc3n2)n1` [compound 84], greater than 10 µM; for `O=C(CCN1CCNCC1)Nc1cc(Nc2cc(-c3cc(Cl)ccc3F)nc3ncccc23)ncn1` [compound 102], greater than 10 µM.
On the same count and under the same terms, for `Fc1ccc(Cl)cc1-c1cc(Nc2ccnc(-c3cccnc3)n2)c2cccnc2n1` [compound 97] the value was 1 to 10 µM; for `CC(C)Oc1cccc(-c2cc(Nc3cc(NCCN4CCCC4)ncn3)c3cccnc3n2)c1` [compound 148], greater than 10 µM.
Take `NCCC(=O)Nc1cc(Nc2cc(-c3cc(Cl)ccc3F)nc3ncccc23)ncn1` [compound 94]: the IC50 is less than 0.1 µM.
Turning to `COC(=O)c1nccc2c1ccn2-c1cc(-c2cc(Cl)ccc2F)nc2ncccc12` [compound 108], the IC50 lay in the range of 0.1 to 1 µM.
On to `NCCCC(=O)Nc1cc(Nc2cc(-c3cc(Cl)ccc3F)nc3ncccc23)ncn1` [compound 135], for which the IC50 was less than 0.1 µM.

The next experiment relates to lung epithelial cell line Mv1Lu. Briefly: Cellular assay for TGF-beta receptor I kinase inhibitors: elimination of TGF-beta-mediated growth inhibition (example 13). It is filed as cell-based. Particulars: 48 h; Mv1Lu cells, 1 ng/ml TGF-beta, 0.5% FCS, two days, Crystal Violet staining; read-out: TβR activity (example 13). As for the experimental part:
Cellular Assay for Testing TGF-Beta Receptor I Kinase Inhibitors
As an example, the ability of the inhibitors to eliminate TGF-beta-mediated growth inhibition was tested. Cells of the lung epithelial cell line Mv1Lu were sown in a defined cell density in a 96-well microtiter plate and cultivated overnight under standard conditions. Next day, the medium was replaced by medium which comprises 0.5% of FCS and 1 ng/ml of TGF-beta, and the test substances were added in defined concentrations, generally in the form of dilution series with 5 fold steps. The concentration of the solvent DMSO was constant at 0.5%. After a further two days, Crystal Violet staining of the cells was carried out. After extraction of the Crystal Violet from the fixed cells, the absorption was measured spectrophotometrically at 550 nm. It could be used as a quantitative measure of the adherent cells present and thus of the cell proliferation during the culture.
Regarding `CN1CCN(c2nccc(Nc3cc(-c4cc(Cl)ccc4F)nc4ncccc34)n2)CC1` [compound 93], the IC50 is greater than 10 µM.
As for `Fc1ccc(Cl)cc1-c1cc(-n2cc(Br)c3cnccc32)c2cccnc2n1` [compound 144], the IC50 was less than 0.1 µM.
Turning to `O=C(NCCN1CCCC1)c1cnccc1Nc1cc(-c2cc(Cl)ccc2F)nc2ncccc12` [compound 133], the IC50 is less than 0.1 µM.
Regarding `CCOc1ccc(Cl)cc1-c1cc(Nc2ccnc(NC(C)=O)c2)c2cccnc2n1` [compound 79], the IC50 lay in the range of 0.1 to 1 µM.
Take `CC(C)(C)OC(=O)NCCCC(=O)Nc1cc(Nc2cc(-c3cc(Cl)ccc3F)nc3ncccc23)ncn1` [compound 131]: the IC50 was less than 0.1 µM.
As to `CN(C)CCNC(=O)c1cnccc1Nc1cc(-c2cc(Cl)ccc2F)nc2ncccc12` [compound 72], the IC50 was less than 0.1 µM.
In the case of `CC(C)(N)C(=O)Nc1cc(Nc2cc(-c3cc(Cl)ccc3F)nc3ncccc23)ncn1` [compound 136], the IC50 is 0.1 to 1 µM.
Turning to `Cc1ccc(-c2cc(Nc3ccncc3)c3cccnc3n2)o1` [compound 123], the IC50 lay within 0.1 to 1 µM.
As for `NCC(=O)Nc1cc(Nc2cc(-c3cc(Cl)ccc3F)nc3ncccc23)ncn1` [compound 110], the IC50 was less than 0.1 µM.
On the same count and under the same terms, for `CC(=O)Nc1cc(Nc2cc(-c3ccccc3F)nc3ncccc23)ncn1` [compound 88] the value was 0.1 to 1 µM; for `Fc1ccc(Cl)cc1-c1cc(Cc2ccncc2)c2cccnc2n1` [compound 75], greater than 10 µM; for `CNc1nccc(Nc2cc(-c3cccc(C)n3)nc3ncccc23)n1` [compound 90], 0.1 to 1 µM.
In the case of `Cc1cc(-c2cc(Nc3cc(N(C)C)ncn3)c3cccnc3n2)c(C)o1` [compound 145], the IC50 is greater than 10 µM.
On to `CN(C)CCNC(=O)c1cc(Nc2cc(-c3cc(F)ccc3F)nc3ncccc23)ccn1` [compound 119], for which the IC50 is greater than 10 µM.
With `CCOC(=O)c1cc(Nc2cc(-c3cc(F)ccc3F)nc3ncccc23)ccn1` [compound 128], the IC50 was greater than 10 µM.
Same read-out and setting: for `Fc1ccc(Cl)cc1-c1cc(-n2ncc3cnccc32)c2cccnc2n1` [compound 73] the value was less than 0.1 µM; for `Cc1cccc(-c2cc(Nc3cc(F)nc(N4CCOCC4)n3)c3cccnc3n2)n1` [compound 84], greater than 10 µM.
Consider `O=C(CCN1CCNCC1)Nc1cc(Nc2cc(-c3cc(Cl)ccc3F)nc3ncccc23)ncn1` [compound 102], for which the IC50 was greater than 10 µM.
Same read-out and setting: to `Fc1ccc(Cl)cc1-c1cc(Nc2ccnc(-c3cccnc3)n2)c2cccnc2n1` [compound 97] belongs greater than 10 µM; to `CC(C)Oc1cccc(-c2cc(Nc3cc(NCCN4CCCC4)ncn3)c3cccnc3n2)c1` [compound 148], 1 to 10 µM; to `NCCC(=O)Nc1cc(Nc2cc(-c3cc(Cl)ccc3F)nc3ncccc23)ncn1` [compound 94], less than 0.1 µM.
The same measure, in the same setting: to `COC(=O)c1nccc2c1ccn2-c1cc(-c2cc(Cl)ccc2F)nc2ncccc12` [compound 108] belongs 1 to 10 µM; to `NCCCC(=O)Nc1cc(Nc2cc(-c3cc(Cl)ccc3F)nc3ncccc23)ncn1` [compound 135], 0.1 to 1 µM.
